Assay results published in PubChem BioAssay AID1745844 (Carcinogenic Potency Database (CPDB), 2022).
Calls of active or inactive are those of the source. No rule for the calls is given here.

System: rodent lifetime carcinogenesis bioassay, tumor incidence TD50
Assay: chronic cancer bioassays in animals – CPDB, compiled studies (AID 1745844)

With `C=CCN(CC(C)=O)N=O` the TD50 (hamster, strain Syrian Golden, females, by gavage, site: liver, lesion: cholangiocarcinoma, dosed 40 weeks, study length 55 weeks) was 21.2 mg/kg/day, the TD50 (hamster, strain Syrian Golden, females, by gavage, site: liver, lesion: hepatocellular adenoma, dosed 40 weeks, study length 55 weeks) was 4.87 mg/kg/day and the TD50 (hamster, strain Syrian Golden, females, by gavage, site: liver, lesion: several types, types named in the paper, dosed 40 weeks, study length 55 weeks) was 3.78 mg/kg/day. For the same compound, the TD50 (hamster, strain Syrian Golden, females, by gavage, site: nasal mucosa, lesion: carcinoma, dosed 40 weeks, study length 55 weeks) was 1.36 mg/kg/day, the TD50 (hamster, strain Syrian Golden, females, by gavage, site: nasal mucosa, lesion: several types, types named in the paper, dosed 40 weeks, study length 55 weeks) was 1.19 mg/kg/day and the TD50 (rat, strain Fischer 344, females, in drinking water, site: esophagus, lesion: several types, types named in the paper, dosed 50 weeks, study length 85 weeks) was 1.25 mg/kg/day. For the same compound, the TD50 (rat, strain Fischer 344, females, in drinking water, site: liver, lesion: hepatocellular carcinoma, dosed 50 weeks, study length 85 weeks) was 0.335 mg/kg/day.

With `ClC(Cl)=C(Cl)C(Cl)=C(Cl)Cl` the TD50 (rat, strain Sprague-Dawley Spartan, females, in feed, site: any site (literature study), lesion: several types, types named in the paper, dosed 104 weeks, study length 104 weeks) was 9.84 mg/kg/day, the TD50 (rat, strain Sprague-Dawley Spartan, females, in feed, site: kidney, lesion: several types, types named in the paper, dosed 104 weeks, study length 104 weeks) was 94.4 mg/kg/day and the carcinogen call (rat, strain Sprague-Dawley Spartan, females, in feed, site: liver, lesion: hepatocellular tumor, malignant, dosed 104 weeks, study length 104 weeks) was “negative (inactive)”. The TD50 (rat, strain Sprague-Dawley Spartan, males, in feed, site: kidney, lesion: several types, types named in the paper, dosed 95 weeks, study length 95 weeks) was 50.5 mg/kg/day and the carcinogen call (rat, strain Sprague-Dawley Spartan, males, in feed, site: liver, lesion: hepatocellular carcinoma, dosed 95 weeks, study length 95 weeks) was “negative (inactive)”.

`CC(C)CCCCCOC(=O)COc1ccc(Cl)cc1Cl` was tested, and the carcinogen call (mouse, strain B6AKF1, females, oral dosing, site: any site (literature study), lesion: several types, types named in the paper, dosed 76 weeks, study length 76 weeks) was “negative (inactive)”, the carcinogen call (mouse, strain B6AKF1, females, oral dosing, site: liver, lesion: hepatoma, dosed 76 weeks, study length 76 weeks) was “negative (inactive)” and the carcinogen call (mouse, strain B6AKF1, females, oral dosing, site: lung, lesion: adenoma, dosed 76 weeks, study length 76 weeks) was “negative (inactive)”. For the same compound, the carcinogen call (mouse, strain B6AKF1, males, oral dosing, site: any site (literature study), lesion: several types, types named in the paper, dosed 76 weeks, study length 76 weeks) was “negative (inactive)”, the carcinogen call (mouse, strain B6AKF1, males, oral dosing, site: liver, lesion: hepatoma, dosed 76 weeks, study length 76 weeks) was “negative (inactive)” and the carcinogen call (mouse, strain B6AKF1, males, oral dosing, site: lung, lesion: several types, types named in the paper, dosed 76 weeks, study length 76 weeks) was “negative (inactive)”. The TD50 (mouse, strain B6C3F1, females, oral dosing, site: any site (literature study), lesion: several types, types named in the paper, dosed 76 weeks, study length 76 weeks) was 24.6 mg/kg/day (inactive), the carcinogen call (mouse, strain B6C3F1, females, oral dosing, site: liver, lesion: hepatoma, dosed 76 weeks, study length 76 weeks) was “negative (inactive)” and the TD50 (mouse, strain B6C3F1, females, oral dosing, site: lung, lesion: adenoma, dosed 76 weeks, study length 76 weeks) was 34 mg/kg/day (inactive). The TD50 (mouse, strain B6C3F1, males, oral dosing, site: any site (literature study), lesion: several types, types named in the paper, dosed 76 weeks, study length 76 weeks) was 17.7 mg/kg/day (inactive), the TD50 (mouse, strain B6C3F1, males, oral dosing, site: liver, lesion: hepatoma, dosed 76 weeks, study length 76 weeks) was 31.7 mg/kg/day (inactive) and the carcinogen call (mouse, strain B6C3F1, males, oral dosing, site: lung, lesion: several types, types named in the paper, dosed 76 weeks, study length 76 weeks) was “negative (inactive)”.

With `O=C(O)c1cc(O)c(O)c(O)c1` the carcinogen call (rat, strain F344/DuCrj, males, in feed, site: forestomach, lesion: squamous-cell carcinoma, dosed 60 weeks, study length 60 weeks) was “negative (inactive)” and the carcinogen call (rat, strain F344/DuCrj, males, in feed, site: forestomach, lesion: squamous-cell papilloma, dosed 60 weeks, study length 60 weeks) was “negative (inactive)”.

Work on `CCN(CC)C(C)=O` yielded a TD50 (rat, strain Wistar, males, by gavage, site: any site (literature study), lesion: several types, types named in the paper, dosed 73 weeks, study length 73 weeks) of 11.8 mg/kg/day and a TD50 (rat, strain Wistar, males, by gavage, site: kidney, lesion: papillary transitional-cell carcinoma, dosed 73 weeks, study length 73 weeks) of 8.85 mg/kg/day.

In the case of `CC[N+]([O-])=NC`, the TD50 (rat, strain Fischer 344, males, in drinking water, site: colon, lesion: several types, types named in the paper, dosed 30 weeks, study length 55 weeks) is reported as 0.125 mg/kg/day, the TD50 (rat, strain Fischer 344, males, in drinking water, site: ileum, lesion: one or several types, types not named, dosed 30 weeks, study length 55 weeks) is reported as 0.221 mg/kg/day and the TD50 (rat, strain Fischer 344, males, in drinking water, site: liver, lesion: hemangiosarcoma, dosed 30 weeks, study length 55 weeks) is reported as 0.0391 mg/kg/day. The TD50 (rat, strain Fischer 344, males, in drinking water, site: liver, lesion: hepatocellular carcinoma, dosed 30 weeks, study length 55 weeks) was 0.0189 mg/kg/day, the TD50 (rat, strain Fischer 344, males, in drinking water, site: liver, lesion: neurosarcoma, dosed 30 weeks, study length 55 weeks) was 0.0832 mg/kg/day and the carcinogen call (rat, strain Fischer 344, males, in drinking water, site: liver, lesion: several types, types named in the paper, dosed 30 weeks, study length 55 weeks) was “positive”.

`O=NN1CCSCC1` was tested, and the TD50 (rat, strain MRC, females, in drinking water, site: any site (literature study), lesion: several types, types named in the paper, dosed 38 weeks, study length 105 weeks) was 7.38 mg/kg/day, the TD50 (rat, strain MRC, females, in drinking water, site: esophagus, lesion: several types, types named in the paper, dosed 38 weeks, study length 105 weeks) was 7.69 mg/kg/day and the TD50 (rat, strain MRC, females, in drinking water, site: tongue, lesion: squamous-cell carcinoma, dosed 38 weeks, study length 105 weeks) was 22 mg/kg/day. It also gave a TD50 (rat, strain MRC, males, in drinking water, site: any site (literature study), lesion: several types, types named in the paper, dosed 38 weeks, study length 95 weeks) of 2.29 mg/kg/day and a TD50 (rat, strain MRC, males, in drinking water, site: esophagus, lesion: several types, types named in the paper, dosed 38 weeks, study length 95 weeks) of 4.15 mg/kg/day.

`CC(COc1ccccc1)N(CCCl)Cc1ccccc1` (stereo unspecified) showed a TD50 (mouse, strain B6C3F1, females, i.p., site: abdominal cavity, lesion: sarcoma, NOS, dosed 52 weeks, study length 84 weeks) of 5.85 mg/kg/day, a TD50 (mouse, strain B6C3F1, females, i.p., site: any site (literature study), lesion: several types, types named in the paper, dosed 52 weeks, study length 84 weeks) of 3.08 mg/kg/day and a TD50 (mouse, strain B6C3F1, males, i.p., site: abdominal cavity, lesion: sarcoma, NOS, dosed 51 weeks, study length 83 weeks) of 4.95 mg/kg/day. It also gave a TD50 (mouse, strain B6C3F1, males, i.p., site: any site (literature study), lesion: several types, types named in the paper, dosed 51 weeks, study length 83 weeks) of 2.17 mg/kg/day, a TD50 (mouse, strain B6C3F1, males, i.p., site: liver, lesion: hepatocellular adenoma + hepatocellular carcinoma + neoplastic nodule, dosed 51 weeks, study length 83 weeks) of 5.84 mg/kg/day and a TD50 (mouse, strain B6C3F1, males, i.p., site: lung, lesion: alveolar/bronchiolar adenoma + alveolar/bronchiolar carcinoma, dosed 51 weeks, study length 83 weeks) of 63 mg/kg/day. It also gave a TD50 (rat, strain Sprague-Dawley, females, i.p., site: any site (literature study), lesion: several types, types named in the paper, dosed 52 weeks, study length 83 weeks) of 1.34 mg/kg/day, a TD50 (rat, strain Sprague-Dawley, females, i.p., site: peritoneum, lesion: sarcoma, NOS, dosed 52 weeks, study length 83 weeks) of 2.36 mg/kg/day and a TD50 (rat, strain Sprague-Dawley, males, i.p., site: any site (literature study), lesion: several types, types named in the paper, dosed 52 weeks, study length 83 weeks) of 0.555 mg/kg/day. The TD50 (rat, strain Sprague-Dawley, males, i.p., site: peritoneum, lesion: sarcoma, NOS, dosed 52 weeks, study length 83 weeks) was 0.71 mg/kg/day.

In the case of `Cl[C@@H]1OCCO[C@H]1Cl`, the TD50 (mouse, strain Ha/ICR, females, i.p., site: lung, lesion: papillary tumor, dosed 64 weeks, study length 64 weeks) is reported as 7.04 mg/kg/day.

Compound `O=C1c2ccccc2CN2C(=O)c3ccccc3CN12` has a TD50 (mouse, strain BALB/cLacDp, females, in feed, site: liver, lesion: angioma, dosed 80 weeks, study length 119 weeks) of 7130 mg/kg/day, a TD50 (mouse, strain BALB/cLacDp, females, in feed, site: liver, lesion: angiosarcoma, dosed 80 weeks, study length 119 weeks) of 852 mg/kg/day and a TD50 (mouse, strain BALB/cLacDp, females, in feed, site: liver, lesion: hepatocellular adenoma, dosed 80 weeks, study length 119 weeks) of 1150 mg/kg/day. The TD50 (mouse, strain BALB/cLacDp, females, in feed, site: liver, lesion: hepatocellular carcinoma, dosed 80 weeks, study length 119 weeks) was 3540 mg/kg/day, the TD50 (mouse, strain BALB/cLacDp, females, in feed, site: lung, lesion: several types, types named in the paper, dosed 80 weeks, study length 119 weeks) was 269 mg/kg/day (inactive) and the TD50 (mouse, strain BALB/cLacDp, males, in feed, site: liver, lesion: angioma, dosed 80 weeks, study length 119 weeks) was 1370 mg/kg/day. For the same compound, the TD50 (mouse, strain BALB/cLacDp, males, in feed, site: liver, lesion: angiosarcoma, dosed 80 weeks, study length 119 weeks) was 879 mg/kg/day and the TD50 (mouse, strain BALB/cLacDp, males, in feed, site: lung, lesion: several types, types named in the paper, dosed 80 weeks, study length 119 weeks) was 412 mg/kg/day (inactive).

For `NC(=O)OCC(COC(N)=O)c1ccccc1`, the TD50 (mouse, strain Charles River CD1, females, in feed, site: liver, lesion: hepatocellular adenoma, dosed 92 weeks, study length 92 weeks) was 10400 mg/kg/day, the TD50 (mouse, strain Charles River CD1, females, in feed, site: liver, lesion: several types, types named in the paper, dosed 92 weeks, study length 92 weeks) was 10200 mg/kg/day and the TD50 (mouse, strain Charles River CD1, males, in feed, site: liver, lesion: hepatocellular adenoma, dosed 92 weeks, study length 92 weeks) was 5770 mg/kg/day. For the same compound, the TD50 (rat, strain Charles River CD (Sprague-Dawley), females, in feed, site: liver, lesion: hepatocellular adenoma, dosed 104 weeks, study length 104 weeks) was 934 mg/kg/day, the carcinogen call (rat, strain Charles River CD (Sprague-Dawley), females, in feed, site: liver, lesion: one or several types, types not named, dosed 52 weeks, study length 52 weeks) was “negative (inactive)” and the carcinogen call (rat, strain Charles River CD (Sprague-Dawley), males, in feed, site: liver, lesion: one or several types, types not named, dosed 52 weeks, study length 52 weeks) was “negative (inactive)”. For the same compound, the TD50 (rat, strain Charles River CD (Sprague-Dawley), males, in feed, site: liver, lesion: several types, types named in the paper, dosed 104 weeks, study length 104 weeks) was 9780 mg/kg/day and the TD50 (rat, strain Charles River CD (Sprague-Dawley), males, in feed, site: testis, lesion: interstitial-cell tumor, dosed 104 weeks, study length 104 weeks) was 1310 mg/kg/day.
